From patent US8912227B1, “Bicyclic pyrrole derivatives useful as agonists of GPR120” (Janssen Pharmaceutica NV, priority 2014, dated 2014)
pEC50: −log10 of the molar value.

Experiments:
Type in all cases: cell-based
Human GPR120 short form [1] = molecular target: T1, Human GPR120 short form (Homo sapiens, UniProt Q5NUL3); test: Human GPR120 calcium flux assay, Procedure Calcium A; details: HEK-293 cells expressing human GPR120 short form, 2500 cells/well, FLIPR
T1 construct: expressed in transfected cells
T1 sequence (Q5NUL3 1-361): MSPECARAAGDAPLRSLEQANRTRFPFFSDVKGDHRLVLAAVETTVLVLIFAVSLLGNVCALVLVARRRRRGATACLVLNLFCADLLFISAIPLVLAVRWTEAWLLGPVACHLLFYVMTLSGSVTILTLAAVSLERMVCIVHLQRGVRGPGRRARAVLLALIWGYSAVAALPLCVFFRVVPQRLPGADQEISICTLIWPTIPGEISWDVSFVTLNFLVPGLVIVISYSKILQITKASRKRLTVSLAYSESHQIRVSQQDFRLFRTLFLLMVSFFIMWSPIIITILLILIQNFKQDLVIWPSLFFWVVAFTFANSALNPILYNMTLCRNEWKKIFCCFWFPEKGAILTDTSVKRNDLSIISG
Source text: (§1) This in vitro assay serves to assess test compound agonist activity against the short splice variant (SVS with Accession number NM_001195755.1 confirmed by sequencing data) of the GPR120 receptor. The Human Short splice variant #2 (NM_001195755.1) is missing an in-frame coding exon compared to variant 1 (the Human Long splice variant NM_181745.3), resulting in a shorter isoform (GPR120-S) lacking a 16 aa protein segment compared to isoform GPR120-L. The assay platform utilizes HEK-293 cells stably transfected to express the Human GPR120 short form. These cells are first loaded with the Ca^+2 sensitive dye, Fluo-4 NW. Upon stimulation, intracellular released Ca^+2 can bind to the dye and alter its fluorescence intensity. This increase in fluorescence signal, and thus the flux in intracellular [Ca^2+], is detected and quantitated by fluorescence imaging using a FLIPR reader. The effect of the agonist is measured as a function of concentration and used to calculate an EC50 based upon a response curve.
In this procedure 2500 cells/well were employed.
(§2) A Human GPR120 clone (Genbank accession number NM_001195755.1) was placed into the pcDNA3.1 mammalian expression vector carrying the neomycin resistance gene. A stable mammalian cell was generated by placing the above clone into a HEK293 background. Clonal cells responding to long chain fatty acids had expression levels of GPR120 confirmed by RT-qPCR. Human HEK-GPR120 cells were cultured in Dulbecco's Modified Eagle's Medium (DMEM)/F12 medium supplemented with 10% fetal bovine serum (FBS), 1% L-Glutamine and 1% penicillin/streptomycin and 0.5 mg/ml G-418. Cells were split 2 times a week to keep the cells in the log-phase growth.
(§3) In preparation for the assay, HEK cells stably transfected with Human GPR120 (2.5K cells per well in 25 uL growth medium) were seeded into 384-well plates and then incubated overnight (37° C., 5% CO2). The next day, the media was changed to 20 μl assay buffer and the cell starved for 1 h at 37° C. The dye loading solution (2× dye) was prepared using 10 ml assay buffer, 100 μl of 250 mM probenecid, 1 bottle of Component A, and 20 μl of dye in DMSO. Twenty μl of the 2× dye loading buffer was then added to each well. The plates were incubated at 37° C. for 30 min, then at room temperature for an additional 15 minutes, before performing the assay on FLIPR.
(§4) Test compounds were prepared in assay buffer (2 μl of test compound+198 μl assay buffer, final DMSO in assay plate is 0.2%) at the desired concentration, more particularly at 100 μM, 50 μM, 25 μM, 12.5 μM, 6.25 μM, 3.125 μM, 1.562 μM, 0.781 μM, 0.391 μM, 0.195 μM, 0.098 μM, 0.049 μM, 0.024 μM and 0.012 μM.
(§5) The assay was performed on a FLIPR plate reader using the following parameters. Baseline was read for 10 seconds at 1 sec intervals. The program was set to transfer 10 μL of ligand from compound plate to cell plate after baseline reading. Aspiration was executed at: 10 μl/sec speed, 4.6 μl height; Dispensing was executed at: 30 μl/sec speed, 45 μl height. After compound addition, each well was read for 300 sec, with measurements collected at 1 sec intervals.
(§6) The kinetic data from the FLIPR was based upon a 5 minute window for data collection. The fluorescence of each sample well was used for individual calculations of a normalized RFU value, which was defined as maximum response minus the minimum response. The normalized fluorescence reading (RFU) was calculated as follows: RFU=Fmax−Fmin
(§7) The data were fitted to a sigmoidal dose-response curve with a variable Hill slope (<2) using nonlinear regression with GraphPad Prism 5.0 to calculate the EC50 values. The Fitting Equation was: Y=Bottom+(Top−Bottom)/(1+10^((LogEC50−X)*HillSlope)), where X is the log of the concentration and Y is the response.

Human GPR120 short form [2] = molecular target: T1, Human GPR120 short form; test: Human GPR120 calcium flux assay, Procedure Calcium B; details: HEK-293 cells expressing human GPR120 short form, 4200 cells/well, FLIPR
Source text: as §1
In this procedure 4200 cells/well were employed.
as §2, §3, §4, §5, §6, §7

[3] = molecular target: T2, long form of human GPR120 (Homo sapiens, UniProt Q5NUL3); test: Human GPR120 DiscoveRx PathHunter β-Arrestin assay, Procedure β-arrestin A; details: PathHunter CHO-K1 GPR120 β-Arrestin cell line, 3000 cells per well
T2 construct: host or cells: PathHunter CHO-K1 GPR120 β-Arrestin Cell Line
Source text: The binding of an agonist (medium/long chain fatty acids or small molecule agonists) to the G-protein-coupled receptor GPR120 activates phospholipase C, leading to release of intracellular Ca^+2 through the generation of inositol 1,4,5-trisphosphate (InsP3 or IP3). GPR120 activation can also trigger intracellular signaling via recruitment of β-Arrestin. In the present method, agonist-induced activation of the human GPR120 receptor is monitored through the use of PathHunter CHO-K1 GPR120 β-Arrestin Cell Line engineered by DiscoveRx, as detailed below. The cell lines are designed to co-express both the ProLink/Enzyme Donor (PK)-tagged GPCR and the Enzyme […] (EA)-tagged Beta-Arrestin fusion proteins. Upon GPR120 receptor stimulation/activation, the EA-tagged β-Arrestin portion is translocated to the tagged receptor, where the two enzyme fragments are brought within close proximity. Under these conditions, these fragments can interact and form an active Beta-gal enzyme complex through Enzyme Fragment Complementation (EFC). This active Beta-gal complex can enzymatically hydrolyse the substrate to produce a detectable light signal; therefore, activation as a function of agonist concentration can be expressed as an EC50 value to determine relative compound activities. This in vitro assay therefore serves to assess compound agonist activity of the GPR120.
In Procedure β-arrestin A, the cell used were PathHunter CHO-K1 GPR120 β-Arrestin Cell Line, expressing the long form of human GPR120 (Genbank accession number NM_181745), with 3000 cells per well.
The selected CHO-K1 GPR120 β-Arrestin cells were cultured in Ham's F12 media supplemented with 10% fetal bovine serum (FBS), 1% Glutamine, 1×p/s, 800 μg/ml G418 and 300 μg/ml Hygromycin B (for selection). Cell stocks were maintained and grown in a sub-confluent state using standard cell culture procedures. The day before the experiment, the cells were harvested with non-enzymatic cell dissociation buffer and re-suspended in complete growth media at the desired concentration. A Corning 384-plate was then seeded with the proper number of cells in a volume of 25 μL, per well. The seeded plates were incubated overnight at 37° C.
On the day of the experiment, the Assay Buffer containing (a) HBSS with Ca^++ and Mg^++, (b) 20 mM HEPES, and (c) 0.1% BSA stabilizer (pH 7.4) was prepared. The growth medium was gently removed from the cell plates and 20 μL of Assay Buffer added to each well. The plate was then incubated at 37° C. for 60 mins. Test compounds were serially diluted in Assay Buffer to desired concentrations (more particularly, to one or more of the following μM concentrations: 25 μM, 12.5 μM, 6.25 μM, 3.125 μM, 1.562 μM, 0.781 μM, 0.391 μM, 0.195 μM, 0.098 μM, 0.049 μM, 0.024 μM, 0.012 μM). Five μl of compound dilution was then added to each well and the plate incubated at 37° C. for 90 mins. The detection reagents were prepared according to the manufacture's instruction. Twelve μL of the detection reagents were added to each well and the plate incubated at room temperature for 60 mins.
The plates were read on an EnVision instrument, using Protocol name: Luminescence, Plate type: 384 Costar, Measurement height: 3 mm, Measurement time: 1 s, Aperture: 384 Plate aperture. The % activity relative to the positive control was calculated using the following equation:
as §7, with “% Activity values” for “data”, “were plotted versus the concentration of test compound and” for “were”, “a” for “a variable”, “slope=1 (fixed value)” for “slope (<2)”

T2 sequence (Q5NUL3 1-377 isoform Q5NUL3-1): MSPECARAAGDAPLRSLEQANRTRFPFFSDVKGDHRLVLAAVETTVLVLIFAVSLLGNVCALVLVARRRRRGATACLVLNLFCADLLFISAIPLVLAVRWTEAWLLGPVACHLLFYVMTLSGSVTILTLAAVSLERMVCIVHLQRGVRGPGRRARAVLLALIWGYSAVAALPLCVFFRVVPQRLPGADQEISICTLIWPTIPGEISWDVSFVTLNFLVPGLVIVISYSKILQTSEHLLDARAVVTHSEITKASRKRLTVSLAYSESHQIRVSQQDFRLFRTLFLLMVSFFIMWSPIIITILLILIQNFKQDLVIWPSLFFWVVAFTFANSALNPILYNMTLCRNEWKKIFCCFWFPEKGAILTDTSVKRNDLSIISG
T2 sequence (P32121 whole entry partner): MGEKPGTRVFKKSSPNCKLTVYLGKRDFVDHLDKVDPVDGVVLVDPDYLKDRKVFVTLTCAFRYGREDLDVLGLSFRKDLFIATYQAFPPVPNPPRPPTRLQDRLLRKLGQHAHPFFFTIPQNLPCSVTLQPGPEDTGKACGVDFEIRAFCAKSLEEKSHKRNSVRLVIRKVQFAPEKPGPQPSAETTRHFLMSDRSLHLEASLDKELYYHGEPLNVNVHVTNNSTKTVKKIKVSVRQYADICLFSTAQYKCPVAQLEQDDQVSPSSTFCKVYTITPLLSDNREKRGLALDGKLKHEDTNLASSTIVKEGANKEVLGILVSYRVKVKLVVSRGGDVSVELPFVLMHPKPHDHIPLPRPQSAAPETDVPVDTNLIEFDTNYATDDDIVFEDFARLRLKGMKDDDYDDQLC

SMILES | pEC50 (Human GPR120 short form [1]) | pEC50 (Human GPR120 short form [2]) | pEC50 [3]
Cc1c(CCC(=O)O)ccc(OCc2cccn2-c2ccc(Br)cc2)c1C [Compound 3, 3-(4-{[1-(4-Bromophenyl)-1H-pyrrol-2-yl]methoxy}-2,3-dimethylphenyl)propanoic acid] | 5.98 | 6.79 | 6.23
OCCCc1ccc(OCc2c(Br)ccn2-c2ccc(Cl)cc2)c(F)c1F [Compound 5, 3-(4-{[3-Bromo-1-(4-chlorophenyl)-1H-pyrrol-2-yl]methoxy}-2,3-difluorophenyl)propan-1-ol] | 6.36 | 6.43 | 6.89
O=C(O)CCc1ccc(OCc2c(Br)ccn2-c2ccc(Cl)cc2)c(F)c1F [Compound 6, 3-(4-{[3-Bromo-1-(4-chlorophenyl)-1H-pyrrol-2-yl]methoxy}-2,3-difluorophenyl)propanoic acid] | 6.09 | 6.79 | 6.14
Cc1c(CCC(=O)O)ccc(OCc2c(Cl)ccn2-c2ccc(Cl)cc2)c1C [Compound 8, 3-(4-{[3-Chloro-1-(4-chlorophenyl)-1H-pyrrol-2-yl]methoxy}-2,3-dimethylphenyl)propanoic acid] | 6.28 | 6.76 | 6.00
Cc1ccc(-n2ccc(C(F)(F)F)c2COc2ccc(CCCO)c(C)c2C)cc1 [Compound 45, 3-(2,3-dimethyl-4-[[1-(4-methylphenyl)-3-(trifluoromethyl)-1H-pyrrol-2-yl]methoxy]phenyl)propan-1-ol] | 5.84 | 6.29 | 
COc1ccc(-n2ccc(C(F)(F)F)c2COc2ccc(CCCO)c(F)c2F)cn1 [Compound 50, 3-(2,3-difluoro-4-[[1-(6-methoxypyridin-3-yl)-3-(trifluoromethyl)-1H-pyrrol-2-yl]methoxy]phenyl)propan-1-ol] | 6.40 | 7.24 | 
COc1ccc(-n2ccc(C(F)(F)F)c2COc2c(F)cc(CCC(=O)O)cc2F)cn1 [Compound 51, 3-(3,5-difluoro-4-[[1-(6-methoxypyridin-3-yl)-3-(trifluoromethyl)-1H-pyrrol-2-yl]methoxy]phenyl)propanoic acid] | 6.17 | 6.71 | 
COc1ccc(-n2ccc(C(F)(F)F)c2COc2c(F)cc(CCCO)cc2F)cn1 [Compound 52, 3-(3,5-difluoro-4-[[1-(6-methoxypyridin-3-yl)-3-(trifluoromethyl)-1H-pyrrol-2-yl]methoxy]phenyl)propan-1-ol] | 6.55 | 7.15 | 
Cc1ccc(-n2ccc(C(F)(F)F)c2COc2ccc(CCC(=O)O)c(F)c2F)cn1 [Compound 53, 3-(2,3-Difluoro-4-{[1-(6-methylpyridin-3-yl)-3-(trifluoromethyl)-1H-pyrrol-2-yl]methoxy}phenyl)propanoic acid] | 5.70 | 6.37 | 
CCc1ccc(-n2ccc(C(F)(F)F)c2COc2ccc(CCCO)c(F)c2F)cn1 [Compound 54, 3-(4-[[1-(6-ethylpyridin-3-yl)-3-(trifluoromethyl)-1H-pyrrol-2-yl]methoxy]-2,3-difluorophenyl)propan-1-ol] | 6.30 | 6.94 | 
CCc1ccc(-n2ccc(C(F)(F)F)c2COc2c(F)cc(CCCO)cc2F)cn1 [Compound 55, 3-(4-[[1-(6-ethylpyridin-3-yl)-3-(trifluoromethyl)-1H-pyrrol-2-yl]methoxy]-3,5-difluorophenyl)propan-1-ol] | 6.67 | 7.47 | 
CCc1ccc(-n2ccc(C(F)(F)F)c2COc2c(F)cc(CCC(=O)O)cc2F)cn1 [Compound 56, 3-(4-[[1-(6-ethylpyridin-3-yl)-3-(trifluoromethyl)-1H-pyrrol-2-yl]methoxy]-3,5-difluorophenyl)propanoic acid] | 5.85 | 6.06 | 
COc1ccc(-n2ccc(C(F)(F)F)c2COc2ccc(CCC(=O)O)c(F)c2F)cn1 [Compound 57, 3-(2,3-difluoro-4-((1-(6-methoxypyridin-3-yl)-3-(trifluoromethyl)-1H-pyrrol-2-yl)methoxy)phenyl)propanoic acid trifluoroacetic acid] | 6.08 | 7.11 | 
